From US20130338178A1, “SIRTUIN MODULATORS AS INHIBITORS OF CYTOMEGALOVIRUS” (THE TRUSTEES OF PRINCETON UNIVERSITY, priority 2011, published 2013)

Assays:
sirtuin = biological target: T1, sirtuin (Homo sapiens, UniProt Q8IXJ6); conditions: cited from earlier work
T1 sequence (Q8IXJ6 2-389 limits assumed): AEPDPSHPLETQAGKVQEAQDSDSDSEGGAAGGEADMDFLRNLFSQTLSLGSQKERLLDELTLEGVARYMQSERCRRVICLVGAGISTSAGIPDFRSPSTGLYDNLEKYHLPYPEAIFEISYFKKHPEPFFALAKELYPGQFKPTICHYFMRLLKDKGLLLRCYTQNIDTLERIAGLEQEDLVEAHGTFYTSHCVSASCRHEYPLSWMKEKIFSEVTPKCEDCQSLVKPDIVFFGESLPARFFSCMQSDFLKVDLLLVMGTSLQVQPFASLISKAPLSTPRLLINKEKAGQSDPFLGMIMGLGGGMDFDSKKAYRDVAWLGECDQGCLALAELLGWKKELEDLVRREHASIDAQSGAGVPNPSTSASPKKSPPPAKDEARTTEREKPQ

SIRT2 [1] = biological target: T2, SIRT2 (Homo sapiens, UniProt Q8IXJ6); conditions: cited from earlier work
T2 sequence (Q8IXJ6 1-389): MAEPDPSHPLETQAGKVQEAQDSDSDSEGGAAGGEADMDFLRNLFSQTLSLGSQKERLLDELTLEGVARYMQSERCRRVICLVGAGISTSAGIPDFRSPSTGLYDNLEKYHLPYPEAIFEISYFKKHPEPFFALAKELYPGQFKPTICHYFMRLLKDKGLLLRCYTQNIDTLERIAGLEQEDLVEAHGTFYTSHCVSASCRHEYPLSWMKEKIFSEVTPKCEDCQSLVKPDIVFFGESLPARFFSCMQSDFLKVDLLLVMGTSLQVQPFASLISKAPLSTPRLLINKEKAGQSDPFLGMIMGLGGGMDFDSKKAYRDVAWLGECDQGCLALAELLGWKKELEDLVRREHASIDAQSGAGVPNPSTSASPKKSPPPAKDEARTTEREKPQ

Sirt6 = Sirt6 (Homo sapiens, UniProt Q8N6T7); conditions: cited from earlier work
Sirt5 = biological target: T3, Sirt5 (Homo sapiens, UniProt Q9NXA8); conditions: cited from earlier work
T3 sequence (Q9NXA8 37-310): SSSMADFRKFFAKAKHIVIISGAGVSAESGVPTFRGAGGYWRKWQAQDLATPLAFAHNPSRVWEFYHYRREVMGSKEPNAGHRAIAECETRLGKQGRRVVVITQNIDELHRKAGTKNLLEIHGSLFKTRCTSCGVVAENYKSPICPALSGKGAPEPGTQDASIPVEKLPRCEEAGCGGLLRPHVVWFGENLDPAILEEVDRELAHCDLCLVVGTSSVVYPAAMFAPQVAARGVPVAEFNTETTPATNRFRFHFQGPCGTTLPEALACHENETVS

SIRT2 [2] = biological target: T2, SIRT2; conditions: cited from earlier work; for Inhibition (at 60 μM ± SE (%)) SIRT2: n = 2
SIRT1 [3] = biological target: T4, SIRT1 (Homo sapiens, UniProt Q96EB6); conditions: n = 2; cited from earlier work
T4 sequence (Q96EB6 1-747): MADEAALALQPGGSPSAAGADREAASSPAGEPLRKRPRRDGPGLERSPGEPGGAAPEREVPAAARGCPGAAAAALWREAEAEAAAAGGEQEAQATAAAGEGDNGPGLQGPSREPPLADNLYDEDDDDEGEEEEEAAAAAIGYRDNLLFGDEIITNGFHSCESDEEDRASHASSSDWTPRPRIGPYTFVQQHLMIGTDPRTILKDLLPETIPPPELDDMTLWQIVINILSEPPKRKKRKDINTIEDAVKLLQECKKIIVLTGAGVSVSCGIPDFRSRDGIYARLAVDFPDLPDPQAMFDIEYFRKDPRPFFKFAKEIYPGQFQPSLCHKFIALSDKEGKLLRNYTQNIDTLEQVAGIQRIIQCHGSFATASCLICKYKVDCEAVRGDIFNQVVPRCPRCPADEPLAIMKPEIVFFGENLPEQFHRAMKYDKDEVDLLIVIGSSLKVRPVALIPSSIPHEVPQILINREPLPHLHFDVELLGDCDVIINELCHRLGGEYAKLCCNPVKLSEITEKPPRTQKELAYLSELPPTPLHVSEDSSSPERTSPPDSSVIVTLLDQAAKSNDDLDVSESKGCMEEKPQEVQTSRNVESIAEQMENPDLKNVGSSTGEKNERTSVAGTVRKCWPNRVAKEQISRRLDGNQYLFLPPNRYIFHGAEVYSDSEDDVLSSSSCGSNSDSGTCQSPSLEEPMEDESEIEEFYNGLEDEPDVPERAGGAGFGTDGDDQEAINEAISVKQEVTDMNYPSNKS

HCMV pUL99 = experiment: Late viral pUL99 expression and cytopathic effect in HCMV infected MRC5 cells; type: cell-based, human cytomegalovirus; conditions: 10 μM; data not shown
SIRT1 [4] = biological target: T4, SIRT1; conditions: cited from earlier work
Hst2 = Hst2 (Saccharomyces cerevisiae, UniProt P53686); conditions: cited from earlier work
HCMV = experiment: Yield of infectious HCMV from drug-treated infected MRC5 fibroblasts; type: cell-based, human cytomegalovirus; conditions: FIG. 5

Sirt6, sequence (Q8N6T7 whole entry): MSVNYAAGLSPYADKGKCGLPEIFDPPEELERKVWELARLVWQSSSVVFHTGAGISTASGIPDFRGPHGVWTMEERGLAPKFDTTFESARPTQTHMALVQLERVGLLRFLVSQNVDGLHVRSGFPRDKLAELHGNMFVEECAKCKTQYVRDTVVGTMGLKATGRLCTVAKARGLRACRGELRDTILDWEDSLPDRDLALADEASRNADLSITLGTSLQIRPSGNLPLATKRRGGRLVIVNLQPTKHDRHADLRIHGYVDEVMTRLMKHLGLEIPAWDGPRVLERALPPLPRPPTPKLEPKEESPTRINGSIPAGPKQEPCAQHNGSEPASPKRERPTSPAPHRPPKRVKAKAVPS
Hst2, sequence (P53686 whole entry): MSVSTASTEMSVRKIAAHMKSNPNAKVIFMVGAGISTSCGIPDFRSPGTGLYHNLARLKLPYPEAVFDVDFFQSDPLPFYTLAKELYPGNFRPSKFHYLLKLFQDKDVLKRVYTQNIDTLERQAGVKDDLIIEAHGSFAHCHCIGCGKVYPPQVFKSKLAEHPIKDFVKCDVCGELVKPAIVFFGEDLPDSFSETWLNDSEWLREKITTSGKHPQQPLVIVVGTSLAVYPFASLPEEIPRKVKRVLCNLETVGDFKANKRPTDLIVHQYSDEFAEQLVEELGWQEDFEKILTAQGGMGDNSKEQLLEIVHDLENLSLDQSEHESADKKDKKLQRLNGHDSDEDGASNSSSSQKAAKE

Structure (SMILES): C(=Nc1ccc(N=Cc2ccccc2)cc1)c1ccccc1 [3a]
- inhibition at 200 μM ± SD, % (sirtuin): 35 ± 1.4%

Structure (SMILES): Oc1ccccc1C=Nc1ccc(N=Cc2ccccc2O)cc1 [3b]
- inhibition at 200 μM ± SD, % (sirtuin): 56 ± 8.2%

Structure (SMILES): Oc1cccc(C=Nc2ccc(N=Cc3cccc(O)c3)cc2)c1 [3c]
- inhibition at 200 μM ± SD, % (sirtuin): 12 ± 0.9%

Structure (SMILES): Oc1ccc(C=Nc2ccc(N=Cc3ccc(O)cc3)cc2)cc1 [3d]
- inhibition at 200 μM ± SD, % (sirtuin): 22 ± 1.6%

Structure (SMILES): COc1ccccc1C=Nc1ccc(N=Cc2ccccc2OC)cc1 [3f]
- inhibition at 200 μM ± SD, % (sirtuin): 13 ± 0.5%

Structure (SMILES): COc1cccc(C=Nc2ccc(N=Cc3cccc(OC)c3)cc2)c1 [3g]
- inhibition at 200 μM ± SD, % (sirtuin): 20 ± 1.2%

Structure (SMILES): c1ccc(CNc2ccc(NCc3ccccc3)cc2)cc1 [4a]
- inhibition at 200 μM ± SD, % (sirtuin): 21 ± 1.7%

Structure (SMILES): Oc1ccccc1CNc1ccc(NCc2ccccc2O)cc1 [4b]
- inhibition at 200 μM ± SD, % (sirtuin): 27 ± 2.4%

Structure (SMILES): Oc1cccc(CNc2ccc(NCc3cccc(O)c3)cc2)c1 [4c]
- inhibition at 200 μM ± SD, % (sirtuin): 8 ± 0.4%

Structure (SMILES): Oc1ccc(CNc2ccc(NCc3ccc(O)cc3)cc2)cc1 [4d]
- inhibition at 200 μM ± SD, % (sirtuin): 14 ± 0.5%

Structure (SMILES): C(=C1c2ccccc2-c2ccccc21)c1ccc(N=C2c3ccccc3-c3ccccc32)cc1 [CSC2]
- Sirt2 effect (SIRT2 [1]): inhibition

Structure (SMILES): Cc1cc(N2CCOCC2)nc2ccc(Cc3ccc4nc(N5CCOCC5)cc(C)c4c3)cc12 [CSC4]
- Sirt2 effect (SIRT2 [1]): inhibition

Structure (SMILES): O=C1c2ccccc2C(=O)c2c(NCc3cc4c5c(ccc6c7ccc8c9c(cc(Nc%10cccc%11c%10C(=O)c%10ccccc%10C%11=O)c(c3c56)c97)-c3ccccc3C8=O)C(=O)c3ccccc3-4)cccc21 [CSC6]
- Sirt6 effect (Sirt6): inhibition
- Sirt2 effect (SIRT2 [1]): inhibition

Structure (SMILES): C=C(C(C)c1ccc2c(c1)Cc1ccccc1-2)C(C)c1ccc2c(c1)Cc1ccccc1-2 (centres unmarked) [CSC7]
- Sirt2 effect (SIRT2 [1]): inhibition

Structure (SMILES): Cc1ccc2c(c1)CCC1C2CCC2(C)C(OC(=O)CCc3ccccc3)CCC12 (centres unmarked) [CSC8]
- Sirt2 effect (SIRT2 [1]): inhibition

Structure (SMILES): C/C(=C1/C=C(c2ccc3ccccc3c2)OC1=O)c1ccc(C(C)C)cc1 [CSC9]
- Sirt5 effect (Sirt5): activation^c
- Sirt2 effect (SIRT2 [1]): inhibition

Structure (SMILES): CC12Cc3cnc(-c4ccccc4)nc3CC1CCC1C2CCC2(C)C1CCC2(C)O (centres unmarked) [CSC13]
- Sirt2 effect (SIRT2 [1]): inhibition

Structure (SMILES): O=Cc1ccc2c(c1)C(=O)c1ccc3c4ccc5c6c(ccc(c7ccc-2c1c37)c64)-c1ccc(C(=O)O)cc1C5=O [CSC14]
- Sirt5 effect (Sirt5): inhibition
- Sirt2 effect (SIRT2 [1]): inhibition

Structure (SMILES): [H]/N=C(\c1ccc2ccccc2c1)c1ccccc1Cc1ccccc1 [CSC22]
- Sirt2 effect (SIRT2 [1]): inhibition

Structure (SMILES): [H]/N=C(\c1cc(C)cc(C)c1)c1ccccc1Cc1cccc2ccccc12 [CSC23]
- Sirt2 effect (SIRT2 [1]): inhibition

Structure (SMILES): [H]/N=C(\c1ccccc1Cc1cccc2ccccc12)c1ccc(C)c2ccccc12 [CSC24]
- Sirt2 effect (SIRT2 [1]): inhibition

Structure (SMILES): O=C1OC2(c3ccc(O)cc3Oc3cc(O)ccc32)c2c1c(-c1ccccc1)c(-c1ccccc1)c(-c1ccccc1)c2-c1ccccc1 [CSC28]
- Sirt6 effect (Sirt6): activation
- Sirt2 effect (SIRT2 [1]): inhibition

Structure (SMILES): COc1ccc2c(c1)Cc1cc(/N=[N+](\[O-])c3ccc4c(c3)Cc3cc(OC)ccc3-4)ccc1-2 [CSC32]
- Sirt2 effect (SIRT2 [1]): inhibition

Structure (SMILES): O=S1(=O)C(c2ccccc2)C(N2CCCCC2)C1C1CC2c3ccccc3C1c1ccccc12 (centres unmarked) [CSC33]
- Sirt5 effect (Sirt5): activation
- Sirt6 effect (Sirt6): activation

Structure (SMILES): O=C1C2C3c4ccccc4C(c4ccccc43)C2C(=O)N1c1ccc(OCc2ccccc2)cc1 (centres unmarked) [CSC34]
- Sirt6 effect (Sirt6): activation
- Sirt2 effect (SIRT2 [1]): inhibition

Structure (SMILES): O=c1[nH]c(=S)[nH]c(-c2ccc(Br)cc2)c1Cc1c(O)ccc2ccccc12 [Compd 6b]
- IC50 (SIRT2 [2]; determined for compounds with over 60% inhibition at 60 μM): > 90 µM

Structure (SMILES): O=c1[nH]c(=S)[nH]c(-c2ccc(Cl)cc2)c1Cc1c(O)ccc2ccccc12 [Compd 6iv]
- Inhibition (at 60 μM ± SE (%)) SIRT2 (SIRT2 [2]): 20.1 ± 1%
- Inhibition (at 60 μM ± SE (%)) SIRT1 (SIRT1 [3]): 13.7 ± 1%

Structure (SMILES): O=c1[nH]c(=S)[nH]c(-c2cccc(Cl)c2)c1Cc1c(O)ccc2ccccc12 [Compd 6ix]
- Inhibition (at 60 μM ± SE (%)) SIRT2 (SIRT2 [2]): 7.6 ± 6%
- Inhibition (at 60 μM ± SE (%)) SIRT1 (SIRT1 [3]): 11.3 ± 1%

Structure (SMILES): O=c1[nH]c(=S)[nH]c(-c2ccc(I)cc2)c1Cc1c(O)ccc2ccccc12 [Compd 6v]
- Inhibition (at 60 μM ± SE (%)) SIRT2 (SIRT2 [2]): 7.7 ± 1%
- Inhibition (at 60 μM ± SE (%)) SIRT1 (SIRT1 [3]): 7.7 ± 1%

Structure (SMILES): O=c1[nH]c(=S)[nH]c(-c2ccc(C(F)(F)F)cc2)c1Cc1c(O)ccc2ccccc12 [Compd 6vi]
- Inhibition (at 60 μM ± SE (%)) SIRT2 (SIRT2 [2]): 6.7 ± 1%
- Inhibition (at 60 μM ± SE (%)) SIRT1 (SIRT1 [3]): 15.1 ± 1%

Structure (SMILES): O=c1[nH]c(=S)[nH]c(-c2ccccc2Br)c1Cc1c(O)ccc2ccccc12 [Compd 6vii]
- Inhibition (at 60 μM ± SE (%)) SIRT1 (SIRT1 [3]): 19.7 ± 1%

Structure (SMILES): O=c1[nH]c(=S)[nH]c(-c2cccc(Br)c2)c1Cc1c(O)ccc2ccccc12 [Compd 6viii]
- Inhibition (at 60 μM ± SE (%)) SIRT2 (SIRT2 [2]): 6.6 ± 3%
- Inhibition (at 60 μM ± SE (%)) SIRT1 (SIRT1 [3]): 4.8 ± 1%

Structure (SMILES): NC(=O)C1CCCc2c1[nH]c1ccc(Cl)cc21 (centres unmarked) [EX-527]
- accumulation of late viral pUL99 protein (HCMV pUL99): increased

Structure (SMILES): c1cnc2ocnc2c1 [Oxazolopyridine]
- EC1.5: The concentration to activate 1.5-fold (SIRT1 [4]): 0.09 µM

Structure (SMILES): c1cc2c(ccc3ncc[nH]c32)n1 [Pyrroloquinoxaline]
- activation at this concentration (SIRT1 [4]; 10 μM): *233% activation at this concentration
- EC1.5: The concentration to activate 1.5-fold (SIRT1 [4]): 10 µM

Structure (SMILES): COc1cc(C(=O)Nc2ccccc2-c2cn3c(CN4CCNCC4)csc3n2)cc(OC)c1OC [SRT1460]
- EC1.5: The concentration to activate 1.5-fold (SIRT1 [4]): 2.9 µM

Structure (SMILES): O=C(Nc1ccccc1-c1cn2c(CN3CCNCC3)csc2n1)c1cnc2ccccc2n1 [SRT1720]
- EC1.5: The concentration to activate 1.5-fold (SIRT1 [4]): 0.16 µM

Structure (SMILES): O=C1CCc2c(ccc3ccccc23)O1 [Splitomycin]
- IC50 (Hst2): > 600 µM

Structure (SMILES): Cc1ccc(C(=O)Nc2ccc(S(=O)(=O)O)c3cc(S(=O)(=O)O)cc(S(=O)(=O)O)c23)cc1NC(=O)c1cccc(NC(=O)Nc2cccc(C(=O)Nc3cc(C(=O)Nc4ccc(S(=O)(=O)O)c5cc(S(=O)(=O)O)cc(S(=O)(=O)O)c45)ccc3C)c2)c1 [Suramin, suramin]
- IC50 (Hst2): 240 ± 70 µM

Structure (SMILES): CN(C)CCCCC(=O)Nc1ccc(NC(=S)NC(=O)c2ccc(C(C)(C)C)cc2)cc1 [Tenovin 6]
- IC50 (Hst2): > 100 µM
- production of infectious HCMV (HCMV): blocked
